From US12391737B2, “Soluble NPY2 receptor agonists” (Boehringer Ingelheim International GmbH, priority 2020, dated 2025)

Experiments:
[1] = target: T1, Human Neuropeptide Y2 Receptor (Homo sapiens, UniProt P49146); assay: Radioligand binding competition assay (RLB); settings: Table 3, 125I-PYY(1-36) competition; read-out: Ki
T1 construct: purchased CHEMICON HTS066M
T1 sequence (P49146 1-381): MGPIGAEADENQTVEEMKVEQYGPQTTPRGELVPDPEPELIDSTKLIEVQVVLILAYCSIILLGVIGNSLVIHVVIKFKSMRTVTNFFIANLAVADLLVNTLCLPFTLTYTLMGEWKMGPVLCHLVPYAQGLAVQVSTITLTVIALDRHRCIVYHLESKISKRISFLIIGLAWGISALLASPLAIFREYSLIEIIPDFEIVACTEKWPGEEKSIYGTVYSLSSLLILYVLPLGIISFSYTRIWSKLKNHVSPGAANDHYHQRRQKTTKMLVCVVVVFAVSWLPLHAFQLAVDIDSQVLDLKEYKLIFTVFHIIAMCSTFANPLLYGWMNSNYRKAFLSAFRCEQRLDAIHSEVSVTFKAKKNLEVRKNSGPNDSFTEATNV
Outline: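 Filtration competition binding on membranes from cells expressing the receptor, 0.5 μg protein/well, in 50 mM HEPES, 5 mM MgCl2, 1 mM CaCl2, pH 7.4, with 0.2% ovalbumin. Incubation ran 2 h at room temperature, followed by GF/C filtration and scintillation counting. IC50 came from nonlinear sigmoidal fits.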

Solubility determination = settings: for Sol6: pH 6; for Sol7: pH 7
Outline: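 Shake-flask style: 10 mg/ml peptide (TFA salt), 0.1 M sodium diphosphate pH 6.4/7.0, 600 rpm, 2 h, RT; filter; dilute 1 mg/ml in 50% MeCN; RP-UPLC, 0–100% B over 2 min, 50 °C. Solubility = sample/control area ratio. Final pH recorded.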

| Structure (SMILES) | Ki [1] [nM] | Sol6 (Solubility determination) [mg/mL] | Sol7 (Solubility determination) [mg/mL] |
| --- | --- | --- | --- |
| CC(C)CC(=O)N[C@@H](C)C(=O)N1CCC[C@H]1C(=O)N[C@@H](CCC(=O)O)C(=O)N[C@@H](CCCCNC(=O)CCCCCNC(=O)CC[C@H](NC(=O)CCCCCCCCCCCCCCCCC(=O)O)C(=O)O)C(=O)N1CCC[C@H]1C(=O)N[C@@H](CCC(=O)O)C(=O)N[C@@H](CCC(=O)O)C(=O)N[C@@H](CC(=O)O)C(=O)N[C@@H](C)C(=O)N[C@H](C(=O)N1CCC[C@H]1C(=O)N[C@@H](CCC(=O)O)C(=O)N[C@@H](CCC(=O)O)C(=O)N[C@@H](CC(C)C)C(=O)N[C@@H](CCC(N)=O)C(=O)N[C@@H](CCCNC(=N)N)C(=O)N[C@@H](Cc1ccc(O)cc1)C(=O)N[C@@H](Cc1ccc(O)cc1)C(=O)N[C@H](C(=O)N[C@@H](CCC(N)=O)C(=O)N[C@@H](CC(C)C)C(=O)N[C@@H](CCCNC(=N)N)C(=O)N[C@@H](Cc1c[nH]cn1)C(=O)N[C@@H](Cc1ccc(O)cc1)C(=O)N[C@@H](Cc1ccc(O)cc1)C(=O)N[C@@H](CC(N)=O)C(=O)N[C@@H](Cc1c[nH]c2ccccc12)C(=O)N[C@@H](CC(C)C)C(=O)N[C@H](C(=O)N[C@@H](CCCNC(=N)N)C(=O)N[C@@H](CCC(N)=O)C(=O)N[C@@H](CCCNC(=N)N)C(=O)N[C@@H](Cc1ccc(O)cc1)C(N)=O)[C@@H](C)O)C(C)C)[C@@H](C)O [Compound 51, N{alpha-4}-(3-methylbutanoyl)-N{epsilon-7}-(6-[(4S)-4-carboxy-4-(17-carboxyheptadecanamido)butanamido]hexanoyl)-[4A,7K,9E,13T,18Q,22V,23Q,28Y,30W,31L]-hPYY(4-36)] | 2.59 | 9.6 | 9.7 |
| CC(C)CC(=O)N[C@@H](C)C(=O)N1CCC[C@H]1C(=O)N[C@@H](CCC(=O)O)C(=O)N[C@@H](CCCCNC(=O)CCCCCNC(=O)CC[C@H](NC(=O)CCCCCCCCCCCCCCCCC(=O)O)C(=O)O)C(=O)N1CCC[C@H]1C(=O)N[C@@H](CCC(=O)O)C(=O)N[C@@H](CCC(=O)O)C(=O)N[C@@H](CC(=O)O)C(=O)N[C@@H](C)C(=O)N[C@H](C(=O)N1CCC[C@H]1C(=O)N[C@@H](CCC(=O)O)C(=O)N[C@@H](CCC(=O)O)C(=O)N[C@@H](C)C(=O)N[C@@H](CCC(N)=O)C(=O)N[C@@H](CCCNC(=N)N)C(=O)N[C@@H](Cc1ccc(O)cc1)C(=O)N[C@@H](Cc1ccc(O)cc1)C(=O)N[C@H](C(=O)N[C@@H](CO)C(=O)N[C@@H](CC(C)C)C(=O)N[C@@H](CCCNC(=N)N)C(=O)N[C@@H](Cc1c[nH]cn1)C(=O)N[C@@H](Cc1ccc(O)cc1)C(=O)N[C@@H](Cc1ccc(O)cc1)C(=O)N[C@@H](CC(N)=O)C(=O)N[C@@H](Cc1c[nH]c2ccccc12)C(=O)N[C@@H](CC(C)C)C(=O)N[C@H](C(=O)N[C@@H](CCCNC(=N)N)C(=O)N[C@@H](CCC(N)=O)C(=O)N[C@@H](CCCNC(=N)N)C(=O)N[C@@H](Cc1ccc(O)cc1)C(N)=O)[C@@H](C)O)C(C)C)[C@@H](C)O [Compound 54, N{alpha-4}-(3-methylbutanoyl)-N{epsilon-7}-(6-[(4S)-4-carboxy-4-(17-carboxyheptadecanamido)butanamido]hexanoyl)-[4A,7K,9E,13T,17A,18Q,22V,28Y,30W,31L]-hPYY(4-36)] | 8.97 | 10.0 | 10.0 |
| CC(C)CC(=O)N[C@@H](C)C(=O)N1CCC[C@H]1C(=O)N[C@@H](C)C(=O)N[C@@H](CCCCNC(=O)CCCCCNC(=O)CC[C@H](NC(=O)CCCCCCCCCCCCCCCCC(=O)O)C(=O)O)C(=O)N1CCC[C@H]1C(=O)N[C@@H](CCC(=O)O)C(=O)N[C@@H](CCC(=O)O)C(=O)N[C@@H](CC(=O)O)C(=O)N[C@@H](C)C(=O)N[C@H](C(=O)N1CCC[C@H]1C(=O)N[C@@H](CCC(=O)O)C(=O)N[C@@H](CCC(=O)O)C(=O)N[C@@H](C)C(=O)N[C@@H](CCC(N)=O)C(=O)N[C@@H](CCCNC(=N)N)C(=O)N[C@@H](Cc1ccc(O)cc1)C(=O)N[C@@H](Cc1ccc(O)cc1)C(=O)N[C@H](C(=O)N[C@@H](CO)C(=O)N[C@@H](CC(C)C)C(=O)N[C@@H](CCCNC(=N)N)C(=O)N[C@@H](Cc1c[nH]cn1)C(=O)N[C@@H](Cc1ccc(O)cc1)C(=O)N[C@@H](Cc1ccc(O)cc1)C(=O)N[C@@H](CC(N)=O)C(=O)N[C@@H](Cc1c[nH]c2ccccc12)C(=O)N[C@@H](CC(C)C)C(=O)N[C@H](C(=O)N[C@@H](CCCNC(=N)N)C(=O)N[C@@H](CCC(N)=O)C(=O)N[C@@H](CCCNC(=N)N)C(=O)N[C@@H](Cc1ccc(O)cc1)C(N)=O)[C@@H](C)O)C(C)C)[C@@H](C)O [Compound 57, N{alpha-4}-(3-methylbutanoyl)-N{epsilon-7}-(6-[(4S)-4-carboxy-4-(17-carboxyheptadecanamido)butanamido]hexanoyl)-[4A,6A,7K,9E,13T,17A,18Q,22V,28Y,30W,31L]-hPYY(4-36)] | 2.07 | 8.3 | 9.6 |
| CC(C)CC(=O)N[C@@H](C)C(=O)N1CCC[C@H]1C(=O)N[C@@H](CCC(=O)O)C(=O)N[C@@H](CCCCNC(=O)CCCCCNC(=O)CC[C@H](NC(=O)CCCCCCCCCCCCCCCCC(=O)O)C(=O)O)C(=O)N1CCC[C@H]1C(=O)N[C@@H](CCC(=O)O)C(=O)N[C@@H](CCC(=O)O)C(=O)N[C@@H](CC(=O)O)C(=O)N[C@@H](C)C(=O)N[C@H](C(=O)N1CCC[C@H]1C(=O)N[C@@H](CCC(=O)O)C(=O)N[C@@H](CCC(=O)O)C(=O)N[C@H](C(=O)N[C@@H](CCC(N)=O)C(=O)N[C@@H](CCCNC(=N)N)C(=O)N[C@@H](Cc1ccc(O)cc1)C(=O)N[C@@H](Cc1ccc(O)cc1)C(=O)N[C@H](C(=O)N[C@@H](CO)C(=O)N[C@@H](CC(C)C)C(=O)N[C@@H](CCCNC(=N)N)C(=O)N[C@@H](Cc1c[nH]cn1)C(=O)N[C@@H](Cc1ccc(O)cc1)C(=O)N[C@@H](Cc1ccc(O)cc1)C(=O)N[C@@H](CC(N)=O)C(=O)N[C@@H](Cc1c[nH]c2ccccc12)C(=O)N[C@@H](CC(C)C)C(=O)N[C@H](C(=O)N[C@@H](CCCNC(=N)N)C(=O)N[C@@H](CCC(N)=O)C(=O)N[C@@H](CCCNC(=N)N)C(=O)N[C@@H](Cc1ccc(O)cc1)C(N)=O)[C@@H](C)O)C(C)C)C(C)C)[C@@H](C)O [Compound 58, N{alpha-4}-(3-methylbutanoyl)-N{epsilon-7}-(6-[(4S)-4-carboxy-4-(17-carboxyheptadecanamido)butanamido]hexanoyl)-[4A,7K,9E,13T,17V,18Q,22V,28Y,30W,31L]-hPYY(4-36)] | 3.46 | 8.6 | 8.8 |
| CC(C)CC(=O)N[C@@H](C)C(=O)N1CCC[C@H]1C(=O)N[C@@H](C)C(=O)N[C@@H](CCCCNC(=O)CCCCCNC(=O)CC[C@H](NC(=O)CCCCCCCCCCCCCCCCC(=O)O)C(=O)O)C(=O)N1CCC[C@H]1C(=O)N[C@@H](CCC(=O)O)C(=O)N[C@@H](CCC(=O)O)C(=O)N[C@@H](CC(=O)O)C(=O)N[C@@H](C)C(=O)N[C@@H](CO)C(=O)N1CCC[C@H]1C(=O)N[C@@H](CCC(=O)O)C(=O)N[C@@H](CCC(=O)O)C(=O)N[C@@H](CC(C)C)C(=O)N[C@@H](CCC(N)=O)C(=O)N[C@@H](CCCNC(=N)N)C(=O)N[C@@H](Cc1ccc(O)cc1)C(=O)N[C@@H](Cc1ccc(O)cc1)C(=O)N[C@H](C(=O)N[C@@H](CCC(N)=O)C(=O)N[C@@H](CC(C)C)C(=O)N[C@@H](CCCNC(=N)N)C(=O)N[C@@H](Cc1c[nH]cn1)C(=O)N[C@@H](Cc1ccc(O)cc1)C(=O)N[C@@H](Cc1ccc(O)cc1)C(=O)N[C@@H](CC(N)=O)C(=O)N[C@@H](Cc1c[nH]c2ccccc12)C(=O)N[C@@H](CC(C)C)C(=O)N[C@H](C(=O)N[C@@H](CCCNC(=N)N)C(=O)N[C@@H](CCC(N)=O)C(=O)N[C@@H](CCCNC(=N)N)C(=O)N[C@@H](Cc1ccc(O)cc1)C(N)=O)[C@@H](C)O)C(C)C [Compound 59, N{alpha-4}-(3-methylbutanoyl)-N{epsilon-7}-(6-[(4S)-4-carboxy-4-(17-carboxyheptadecanamido)butanamido]hexanoyl)-[4A,6A,7K,9E,18Q,22V,23Q,28Y,30W,31L]-hPYY(4-36)] | 1.93 | 9.7 | 9.6 |
| CC(C)CC(=O)N[C@@H](C)C(=O)N1CCC[C@H]1C(=O)N[C@@H](CCC(=O)O)C(=O)N[C@@H](CCCCNC(=O)CCCCCNC(=O)CC[C@H](NC(=O)CCCCCCCCCCCCCCCCC(=O)O)C(=O)O)C(=O)N1CCC[C@H]1C(=O)N[C@@H](CCC(=O)O)C(=O)N[C@@H](CCC(=O)O)C(=O)N[C@@H](CC(=O)O)C(=O)N[C@@H](C)C(=O)N[C@@H](CO)C(=O)N1CCC[C@H]1C(=O)N[C@@H](CCC(=O)O)C(=O)N[C@@H](CCC(=O)O)C(=O)N[C@@H](CC(C)C)C(=O)N[C@@H](CCC(N)=O)C(=O)N[C@@H](CCCNC(=N)N)C(=O)N[C@@H](Cc1ccc(O)cc1)C(=O)N[C@@H](Cc1ccc(O)cc1)C(=O)N[C@H](C(=O)N[C@@H](CO)C(=O)N[C@@H](CC(C)C)C(=O)N[C@@H](CCCNC(=N)N)C(=O)N[C@@H](Cc1c[nH]cn1)C(=O)N[C@@H](Cc1ccc(O)cc1)C(=O)N[C@@H](Cc1ccc(O)cc1)C(=O)N[C@@H](CCC(N)=O)C(=O)N[C@@H](Cc1c[nH]c2ccccc12)C(=O)N[C@@H](CC(C)C)C(=O)N[C@H](C(=O)N[C@@H](CCCNC(=N)N)C(=O)N[C@@H](CCC(N)=O)C(=O)N[C@@H](CCCNC(=N)N)C(=O)N[C@@H](Cc1ccc(O)cc1)C(N)=O)[C@@H](C)O)C(C)C [Compound 60, N{alpha-4}-(3-methylbutanoyl)-N{epsilon-7}-(6-[(4S)-4-carboxy-4-(17-carboxyheptadecanamido)butanamido]hexanoyl)-[4A,7K,9E,18Q,22V,28Y,29Q,30W,31L]-hPYY(4-36)] | 6.04 | >10.0 | 10.0 |
